Assay results published in patent US10030020B2, “Spirocycle compounds and methods of making and using same” (Abide Therapeutics, Inc., priority 2016, dated 2018).

Legend:
MAGL [1] = target: T1, MAGL (Mus musculus (Mouse), UniProt O35678); test: In vitro competitive activity-based protein profiling (mouse brain membrane fraction or cell lysates), MAGL band; type: biochemical; details: mouse proteome; for inhibition at 1 µM: read-out: MAGL % Inh 1 μM (mouse); for IC50: competitive ABPP
Experimental: In Vitro Competitive Activity-Based Protein Profiling.
Proteomes (mouse brain membrane fraction or cell lysates) (50 μL, 1.0 mg/mL total protein concentration) were preincubated with varying concentrations of inhibitors at 37° C. After 30 min, FP—Rh (1.0 μL, 50 μM in DMSO) was added and the mixture was incubated for another 30 min at 37° C. Reactions were quenched with SDS loading buffer (50 μL-4×) and run on SDS-PAGE.

ABHD6 [2] = target: T2, ABHD6 (Mus musculus (Mouse), UniProt Q8R2Y0); test: In vitro competitive activity-based protein profiling (mouse brain membrane fraction or cell lysates), ABHD6 band; type: biochemical; details: mouse proteome; for inhibition at 1 µM: read-out: ABHD6 % Inh 1 μM (mouse); for IC50: competitive ABPP
T2 sequence (Q8R2Y0 whole entry): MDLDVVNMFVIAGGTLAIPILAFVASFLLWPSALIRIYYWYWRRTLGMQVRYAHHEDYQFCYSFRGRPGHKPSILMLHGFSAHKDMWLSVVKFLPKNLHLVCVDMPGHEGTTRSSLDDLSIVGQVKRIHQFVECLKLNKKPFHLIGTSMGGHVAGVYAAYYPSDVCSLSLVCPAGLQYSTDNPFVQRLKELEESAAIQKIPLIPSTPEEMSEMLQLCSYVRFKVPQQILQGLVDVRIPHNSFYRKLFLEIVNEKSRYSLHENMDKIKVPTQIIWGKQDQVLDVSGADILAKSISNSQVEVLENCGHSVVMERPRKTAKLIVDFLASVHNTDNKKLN
Method in brief: (§1)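 Mouse proteome samples (brain membrane fraction or cell lysate, 1.0 mg/mL protein) were pretreated with varying inhibitor concentrations and subsequently probed with fluorophosphonate-rhodamine, each step lasting 30 min at 37° C. Labelled proteins were separated by SDS-PAGE, and band fluorescence was imaged and quantified.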

FAAH [3] = target: T3, FAAH (Mus musculus (Mouse), UniProt O08914); test: In vitro competitive activity-based protein profiling (mouse brain membrane fraction or cell lysates), FAAH band; type: biochemical; details: mouse proteome; for inhibition at 1 µM: read-out: FAAH % Inh 1 μM (mouse); for IC50: competitive ABPP
T3 sequence (O08914 whole entry): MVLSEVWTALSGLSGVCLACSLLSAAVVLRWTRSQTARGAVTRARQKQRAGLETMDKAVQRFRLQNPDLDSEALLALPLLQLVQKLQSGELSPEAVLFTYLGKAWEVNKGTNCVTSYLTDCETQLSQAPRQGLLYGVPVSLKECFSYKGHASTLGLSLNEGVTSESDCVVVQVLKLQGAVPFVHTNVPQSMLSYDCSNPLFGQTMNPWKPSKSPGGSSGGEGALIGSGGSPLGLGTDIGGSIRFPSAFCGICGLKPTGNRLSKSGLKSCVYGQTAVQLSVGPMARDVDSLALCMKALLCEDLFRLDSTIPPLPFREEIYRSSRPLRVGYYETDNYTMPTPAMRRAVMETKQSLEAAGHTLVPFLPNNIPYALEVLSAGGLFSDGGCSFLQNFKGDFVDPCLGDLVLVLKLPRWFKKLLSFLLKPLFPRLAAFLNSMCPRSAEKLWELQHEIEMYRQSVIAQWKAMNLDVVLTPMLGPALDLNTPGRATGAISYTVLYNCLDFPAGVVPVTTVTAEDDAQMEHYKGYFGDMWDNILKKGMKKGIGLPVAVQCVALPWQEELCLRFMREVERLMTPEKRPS
Method in brief: as §1

MAGL [4] = target: T1, MAGL; test: Mouse brain proteomes from inhibitor treated mice (oral gavage, sacrificed 4 h after administration, ABPP analysis); type: in vivo, mouse (C57Bl/6J); details: 5 mg/kg oral gavage
Experimental: (§2) Preparation of Mouse Brain Proteomes from Inhibitor Treated Mice.
(§3) Inhibitors were administered to wild-type C57Bl/6J by oral gavage in a vehicle, e.g. PEG400/Ethanol/PBS (7/2/1). Each animal was sacrificed 4 h following administration and brain proteomes were prepared and analyzed according to previously established methods (See Niphakis, M. J., et al. (2011) ACS Chem. Neurosci. and Long, J. Z., et al. Nat. Chem. Biol. 5:37-44). Data from this assay is shown in Table 2 (% inhibition at 5 mg/kg).

FAAH [5] = target: T3, FAAH; test: Mouse brain proteomes from inhibitor treated mice (oral gavage, sacrificed 4 h after administration, ABPP analysis), FAAH; type: in vivo, mouse (C57Bl/6J); details: 5 mg/kg oral gavage
Experimental: as §2, §3

ABHD6 [6] = target: T2, ABHD6; test: Mouse brain proteomes from inhibitor treated mice (oral gavage, sacrificed 4 h after administration, ABPP analysis), ABHD6; type: in vivo, mouse (C57Bl/6J); details: 5 mg/kg oral gavage
Experimental: as §2, §3

T1 sequence (O35678 whole entry): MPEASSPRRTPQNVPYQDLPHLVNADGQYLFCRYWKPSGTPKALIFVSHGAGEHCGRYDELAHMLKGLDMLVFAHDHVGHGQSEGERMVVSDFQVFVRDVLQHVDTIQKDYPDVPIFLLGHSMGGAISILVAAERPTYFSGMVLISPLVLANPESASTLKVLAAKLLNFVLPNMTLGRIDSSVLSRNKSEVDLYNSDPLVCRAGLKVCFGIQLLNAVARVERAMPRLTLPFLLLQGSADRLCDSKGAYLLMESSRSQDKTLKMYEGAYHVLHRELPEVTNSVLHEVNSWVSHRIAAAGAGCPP

Row | inhibition at 1 µM (MAGL [1]) [%] | IC50 (MAGL [1]) [nM] | inhibition at 1 µM (ABHD6 [2]) [%] | IC50 (ABHD6 [2]) [nM] | inhibition at 1 µM (FAAH [3]) [%] | IC50 (FAAH [3]) [nM] | FAAH % Inh 5 mg/kg (mouse) (FAAH [5]) | ABHD6 % Inh 5 mg/kg (mouse) (ABHD6 [6]) | Compound | MAGL % Inh 5 mg/kg (mouse) (MAGL [4])
1 | > 75 | < 100 | ≥ 75 | 100 to 1000 | < 25 | > 1000 | # (# is <25%) | # (# is <25%) | O=C(OC(C(F)(F)F)C(F)(F)F)N1CCC2(CCN(Cc3ccc(C(F)(F)F)cc3N3CCOCC3)C2)CC1 [Example 22, 1,1,1,3,3,3-Hexafluoropropan-2-yl 2-(2-morpholino-4-(trifluoromethyl)benzyl)-2,8-diazaspiro[4.5]decane-8-carboxylate] | ### (### is ≥75%)
2 | > 75 | < 100 | < 25 | > 1000 | < 25 | > 1000 | # (# is <25%) | # (# is <25%) | O=C(OC(C(F)(F)F)C(F)(F)F)N1CCC2(CCN(Cc3ccc(C(F)(F)F)cc3N3CCCCC3)C2)CC1 [Example 23, 1,1,1,3,3,3-Hexafluoropropan-2-yl 2-(2-(piperidin-1-yl)-4-(trifluoromethyl)benzyl)-2,8-diazaspiro[4.5]decane-8-carboxylate] | ## (## is equal to or greater than 25% but less than 75%)
3 | > 75 | < 100 | < 25 | > 1000 | < 25 | > 1000 | # (# is <25%) | # (# is <25%) | O=C(OC(C(F)(F)F)C(F)(F)F)N1CCC2(CCN(Cc3ccc(Cl)cc3N3CCCCC3)C2)CC1 [Example 24, 1,1,1,3,3,3-Hexafluoropropan-2-yl 2-(4-chloro-2-(piperidin-1-yl)benzyl)-2,8-diazaspiro[4.5]decane-8-carboxylate] | ### (### is ≥75%)
4 | > 75 | < 100 | ≥ 75 | 100 to 1000 | < 25 | > 1000 | # (# is <25%) | # (# is <25%) | O=C(OC(C(F)(F)F)C(F)(F)F)N1CCC2(CCN(Cc3ccc(Cl)cc3N3CC4COCC4C3)C2)CC1 (stereo not drawn) [Example 25, 1,1,1,3,3,3-Hexafluoropropan-2-yl 2-(4-chloro-2-(tetrahydro-1H-furo[3,4-c]pyrrol-5(3H)-yl)benzyl)-2,8-diazaspiro[4.5]decane-8-carboxylate] | ## (## is equal to or greater than 25% but less than 75%)
5 | > 75 | < 100 | ≥ 75 | 100 to 1000 | < 25 | > 1000 | # (# is <25%) | # (# is <25%) | O=C(OC(C(F)(F)F)C(F)(F)F)N1CCC2(CCN(Cc3ccc(C(F)(F)F)cc3N3CC4COCC4C3)C2)CC1 (stereo not drawn) [Example 26, 1,1,1,3,3,3-Hexafluoropropan-2-yl 2-(2-(tetrahydro-1H-furo[3,4-c]pyrrol-5(3H)-yl)-4-(trifluoromethyl)benzyl)-2,8-diazaspiro[4.5]decane-8-carboxylate] | ## (## is equal to or greater than 25% but less than 75%)
6 | – | 100 to 1000 | – | > 1000 | – | > 1000 | # (# is <25%) | # (# is <25%) | O=C(OC(C(F)(F)F)C(F)(F)F)N1CCC2(CCCN2Cc2cccc(OCCF)c2)CC1 [Example 27, 1,1,1,3,3,3-Hexafluoropropan-2-yl 1-(3-(2-fluoroethoxy)benzyl)-1,8-diazaspiro[4.5]decane-8-carboxylate] | ### (### is ≥75%)
